BindingDB's records for doi:10.7270/Q29P301W (University of Pittsburgh, 2006)

Target: T1, Dual specificity protein phosphatase 6 (Rattus norvegicus, UniProt Q64346)
T1 sequence (Q64346 whole entry): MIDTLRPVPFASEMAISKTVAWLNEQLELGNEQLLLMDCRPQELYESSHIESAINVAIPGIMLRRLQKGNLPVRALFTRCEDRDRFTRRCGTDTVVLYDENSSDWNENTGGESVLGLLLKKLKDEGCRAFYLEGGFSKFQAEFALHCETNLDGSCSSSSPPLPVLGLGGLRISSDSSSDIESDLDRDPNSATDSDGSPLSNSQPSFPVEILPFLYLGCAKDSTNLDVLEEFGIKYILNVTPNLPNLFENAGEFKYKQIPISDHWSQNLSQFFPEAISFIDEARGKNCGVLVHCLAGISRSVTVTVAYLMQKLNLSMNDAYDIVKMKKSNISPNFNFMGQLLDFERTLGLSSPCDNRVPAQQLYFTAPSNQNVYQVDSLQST
Assay: DUSP6 inhibitors, confirmatory specificity test, biochemical, cell-free, concentration-response (AID 452)

IC50 [µM]	Compound
41.2	COc1ccc(Cn2c(C)nc3c(c2=O)c2nc4ccccc4nc2n3Cc2ccco2)cc1 [MLS000079944]
> 50	CCCCC[C@H](O)C=C[C@H]1C=CC(=O)[C@@H]1C/C=C\CCCC(=O)O [(Z)-7-[(1R,5S)-2-oxidanylidene-5-[(E,3S)-3-oxidanyloct-1-enyl]cyclopent-3-en-1-yl]hept-5-enoic acid]

Further lines, the compound ahead of its results:

Compound	IC50 [µM]
Cc1ccc2c(c1C)NC(C(=O)O)C1CC=CC21 (stereo not given)	> 50
CC(C)Cn1c(N)c(C(=O)COC(=O)c2cc(-c3ccco3)nc3ccccc23)c(=O)n(C)c1=O [2-(2-furanyl)-4-quinolinecarboxylic acid [2-[4-amino-1-methyl-3-(2-methylpropyl)-2,6-dioxo-5-pyrimidinyl]-2-oxoethyl] ester]	> 50
CCn1nc(-c2ccccc2)nc2c(=O)n(C)c(=O)nc1-2 [1-Ethyl-6-methyl-3-phenyl-1H-pyrimido[5,4-e][1,2,4]triazine-5,7-dione]	0.159
